Data from ChEMBL document CHEMBL1132005, “Structure-activity relationship in two series of aminoalkyl substituted coumarin inhibitors of gyrase B” (1999).
≈ marks a conversion by molar mass, not a printed value.

Legend:
Enterococcus faecium = test: In vitro antibacterial activity against Enterococcus faecium 02D31P2 VanTeiEry-R; type: functional
[1] = molecular target: DNA gyrase (Escherichia coli) (UniProt P0AES6+P0AES4); test: In vitro inhibition of supercoiling activity of Escherichia coli DNA gyrase as the ratio of IC50 of Novobiocin and IC50 of compound; type: protein-complex assay
[2] = system: Staphylococcus epidermidis; test: In vitro antibacterial activity against Staphylococcus epidermidis 012GO39 OxaTei-R; type: functional
Staphylococcus aureus [3] = test: In vitro antibacterial activity against Staphylococcus aureus 011HT1 Nov-R; type: functional
Staphylococcus aureus [4] = test: In vitro antibacterial activity against Staphylococcus aureus 011HT3; type: functional
Streptococcus pyogenes = test: In vitro antibacterial activity against Streptococcus pyogenes O2A1UC1
Staphylococcus aureus [5] = test: In vitro antibacterial activity against Staphylococcus aureus 011GO76 OfloOxaEry-R; type: functional

| SMILES | MIC (Enterococcus faecium) [µg/mL] | Ratio [1] | MIC [2] [µg/mL] | MIC (Staphylococcus aureus [3]) [µg/mL] | MIC (Staphylococcus aureus [4]) [µg/mL] | MIC (Streptococcus pyogenes) [µg/mL] | MIC (Staphylococcus aureus [5]) [µg/mL] |
| --- | --- | --- | --- | --- | --- | --- | --- |
| CO[C@@H]1[C@@H](OC(=O)c2ccc(C)[nH]2)[C@@H](O)[C@H](Oc2ccc3c(O)c(NC(=O)c4ccc(O)c(CC=C(C)C)c4)c(=O)oc3c2Cl)OC1(C)C [CHLOROBIOCIN] | – | – | < 0.04 | 0.15 (≈ 0.215 µM) | < 0.04 | < 0.04 | < 0.04 |
| CO[C@@H]1[C@@H](OC(=O)c2ccc(C)[nH]2)[C@@H](O)[C@H](Oc2ccc3c(OCCN4CCOCC4)c(Cl)c(=O)oc3c2C)OC1(C)C | > 40 | 0.17 | 2.5 (≈ 4.03 µM) | > 40 | 1.2 (≈ 1.93 µM) | 5 (≈ 8.05 µM) | 2.5 (≈ 4.03 µM) |
| CO[C@@H]1[C@@H](OC(=O)c2ccc(C)[nH]2)[C@@H](O)[C@H](Oc2ccc3c(OCCN4CCNC(c5ccccc5)C4)cc(=O)oc3c2C)OC1(C)C (some centres undefined) | 5 (≈ 7.56 µM) | 0.33 | 0.6 (≈ 0.907 µM) | 5 (≈ 7.56 µM) | 0.3 (≈ 0.453 µM) | 1.2 (≈ 1.81 µM) | 10 (≈ 15.1 µM) |
| CO[C@@H]1[C@@H](OC(=O)c2ccc(C)[nH]2)[C@@H](O)[C@H](Oc2ccc3c(OCCN4CCN(C)CC4)c(Cl)c(=O)oc3c2C)OC1(C)C | > 40 | 0.33 | 5 (≈ 7.88 µM) | > 40 | 5 (≈ 7.88 µM) | 10 (≈ 15.8 µM) | 10 (≈ 15.8 µM) |
| CO[C@@H]1[C@@H](OC(=O)c2ccc(C)[nH]2)[C@@H](O)[C@H](Oc2ccc3c(CN4CCNCC4)cc(=O)oc3c2C)OC1(C)C | > 40 | 2.3 | 5 (≈ 9 µM) | > 40 | 10 (≈ 18 µM) | 20 (≈ 36 µM) | 20 (≈ 36 µM) |
| CO[C@@H]1[C@@H](OC(=O)c2ccc(C)[nH]2)[C@@H](O)[C@H](Oc2ccc3c(CN4CCNC(c5ccccc5)C4)cc(=O)oc3c2C)OC1(C)C (some centres undefined) | 10 (≈ 15.8 µM) | 0.28 | 1.2 (≈ 1.9 µM) | 10 (≈ 15.8 µM) | 1.2 (≈ 1.9 µM) | 2.5 (≈ 3.96 µM) | 5 (≈ 7.91 µM) |
| CO[C@@H]1[C@@H](OC(=O)c2ccc(C)[nH]2)[C@@H](O)[C@H](Oc2ccc3c(CN4CCC(O)CC4)cc(=O)oc3c2C)OC1(C)C | 20 (≈ 35 µM) | 0.22 | 0.6 (≈ 1.05 µM) | 20 (≈ 35 µM) | 0.6 (≈ 1.05 µM) | 2.5 (≈ 4.38 µM) | 1.2 (≈ 2.1 µM) |
| CO[C@@H]1[C@@H](OC(=O)c2ccc(C)[nH]2)[C@@H](O)[C@H](Oc2ccc3c(CN4CCCC4)cc(=O)oc3c2C)OC1(C)C | > 40 | 0.5 | 2.5 (≈ 4.62 µM) | 40 (≈ 74 µM) | 2.5 (≈ 4.62 µM) | 10 (≈ 18.5 µM) | 5 (≈ 9.25 µM) |
| CCN1CCN(Cc2cc(=O)oc3c(C)c(O[C@@H]4OC(C)(C)[C@H](OC)[C@@H](OC(=O)c5ccc(C)[nH]5)[C@H]4O)ccc23)CC1 | > 40 | 1 | 2.5 (≈ 4.28 µM) | > 40 | 5 (≈ 8.57 µM) | 20 (≈ 34.3 µM) | 10 (≈ 17.1 µM) |
| CO[C@@H]1[C@@H](OC(N)=O)[C@@H](O)[C@H](Oc2ccc3c(O)c(NC(=O)c4ccc(O)c(CC=C(C)C)c4)c(=O)oc3c2C)OC1(C)C [NOVOBIOCIN] | 0.3 (≈ 0.49 µM) | – | 0.08 (≈ 0.131 µM) | 20 (≈ 32.6 µM) | < 0.04 | 0.15 (≈ 0.245 µM) | < 0.04 |

The remaining lines, values ahead:

| MIC (Enterococcus faecium) [µg/mL] | Ratio [1] | MIC [2] [µg/mL] | MIC (Staphylococcus aureus [3]) [µg/mL] | MIC (Staphylococcus aureus [4]) [µg/mL] | MIC (Streptococcus pyogenes) [µg/mL] | MIC (Staphylococcus aureus [5]) [µg/mL] | SMILES |
| --- | --- | --- | --- | --- | --- | --- | --- |
| 20 (≈ 33.3 µM) | 0.66 | 2.5 (≈ 4.16 µM) | 40 (≈ 66.6 µM) | 0.6 (≈ 0.999 µM) | 5 (≈ 8.32 µM) | – | CO[C@@H]1[C@@H](OC(=O)c2ccc(C)[nH]2)[C@@H](O)[C@H](Oc2ccc3c(OCCN4CCC[C@H]4CO)cc(=O)oc3c2C)OC1(C)C |
| 5 (≈ 8.34 µM) | 0.33 | < 0.04 | 2.5 (≈ 4.17 µM) | 0.08 (≈ 0.133 µM) | 0.6 (≈ 1 µM) | 5 (≈ 8.34 µM) | CO[C@@H]1[C@@H](OC(=O)c2ccc(C)[nH]2)[C@@H](O)[C@H](Oc2ccc3c(OCCSc4ncc[nH]4)cc(=O)oc3c2C)OC1(C)C |
| > 40 | 0.63 | 0.08 (≈ 0.124 µM) | > 40 | 0.6 (≈ 0.931 µM) | 1.2 (≈ 1.86 µM) | > 40 | CO[C@@H]1[C@@H](OC(=O)c2ccc(C)[nH]2)[C@@H](O)[C@H](Oc2ccc3c(OCCn4cnc(-c5cccnc5)c4)cc(=O)oc3c2C)OC1(C)C |
| > 40 | 1.8 | 5 (≈ 10.3 µM) | > 40 | 10 (≈ 20.6 µM) | 40 (≈ 82.2 µM) | 40 (≈ 82.2 µM) | CO[C@@H]1[C@@H](OC(=O)c2ccc(C)[nH]2)[C@@H](O)[C@H](Oc2ccc3c(CN)cc(=O)oc3c2C)OC1(C)C |
| 40 (≈ 66.7 µM) | 0.5 | 1.2 (≈ 2 µM) | 20 (≈ 33.4 µM) | 1.2 (≈ 2 µM) | 10 (≈ 16.7 µM) | 2.5 (≈ 4.17 µM) | CO[C@@H]1[C@@H](OC(=O)c2ccc(C)[nH]2)[C@@H](O)[C@H](Oc2ccc3c(OCCN4CCN(C)CC4)cc(=O)oc3c2C)OC1(C)C |
| 20 (≈ 35.1 µM) | 0.35 | 0.6 (≈ 1.05 µM) | 20 (≈ 35.1 µM) | 0.6 (≈ 1.05 µM) | 2.5 (≈ 4.39 µM) | 10 (≈ 17.6 µM) | CO[C@@H]1[C@@H](OC(=O)c2ccc(C)[nH]2)[C@@H](O)[C@H](Oc2ccc3c(CSc4ncc[nH]4)cc(=O)oc3c2C)OC1(C)C |
| 2.5 (≈ 4.38 µM) | 0.4 | 0.3 (≈ 0.526 µM) | 10 (≈ 17.5 µM) | 0.3 (≈ 0.526 µM) | 0.6 (≈ 1.05 µM) | 0.6 (≈ 1.05 µM) | CO[C@@H]1[C@@H](OC(=O)c2ccc(C)[nH]2)[C@@H](O)[C@H](Oc2ccc3c(CSc4nc[nH]n4)cc(=O)oc3c2C)OC1(C)C |
| 20 (≈ 38.7 µM) | 0.81 | 1.2 (≈ 2.32 µM) | 20 (≈ 38.7 µM) | 2.5 (≈ 4.84 µM) | 5 (≈ 9.68 µM) | 5 (≈ 9.68 µM) | CO[C@@H]1[C@@H](OC(=O)c2ccc(C)[nH]2)[C@@H](O)[C@H](Oc2ccc3c(OCCN)cc(=O)oc3c2C)OC1(C)C |
| > 40 | 2.3 | 1.2 (≈ 2.26 µM) | 20 (≈ 37.7 µM) | 2.5 (≈ 4.71 µM) | 5 (≈ 9.42 µM) | 2.5 (≈ 4.71 µM) | CNCCOc1cc(=O)oc2c(C)c(O[C@@H]3OC(C)(C)[C@H](OC)[C@@H](OC(=O)c4ccc(C)[nH]4)[C@H]3O)ccc12 |
| 40 (≈ 74.3 µM) | 0.4 | 0.6 (≈ 1.11 µM) | 40 (≈ 74.3 µM) | 1.2 (≈ 2.23 µM) | 2.5 (≈ 4.64 µM) | 2.5 (≈ 4.64 µM) | CO[C@@H]1[C@@H](OC(=O)c2ccc(C)[nH]2)[C@@H](O)[C@H](Oc2ccc3c(Cn4cncn4)cc(=O)oc3c2C)OC1(C)C |
| 10 (≈ 17.6 µM) | 0.22 | 0.3 (≈ 0.529 µM) | > 20 | 0.6 (≈ 1.06 µM) | 1.2 (≈ 2.11 µM) | 1.2 (≈ 2.11 µM) | CO[C@@H]1[C@@H](OC(=O)c2ccc(C)[nH]2)[C@@H](O)[C@H](Oc2ccc3c(OCCn4ccnc4)cc(=O)oc3c2C)OC1(C)C |
| > 40 | 1 | 1.2 (≈ 2.23 µM) | > 40 | 1.2 (≈ 2.23 µM) | 5 (≈ 9.3 µM) | 5 (≈ 9.3 µM) | CO[C@@H]1[C@@H](OC(=O)c2ccc(C)[nH]2)[C@@H](O)[C@H](Oc2ccc3c(Cn4ccnc4)cc(=O)oc3c2C)OC1(C)C |
| > 40 | 0.25 | 0.6 (≈ 0.973 µM) | 40 (≈ 64.9 µM) | 1.2 (≈ 1.95 µM) | 10 (≈ 16.2 µM) | > 40 | CO[C@@H]1[C@@H](OC(=O)c2ccc(C)[nH]2)[C@@H](O)[C@H](Oc2ccc3c(OCCN4CCOC(CO)C4)cc(=O)oc3c2C)OC1(C)C (some centres undefined) |
| 10 (≈ 17.6 µM) | 0.57 | < 0.04 | 20 (≈ 35.2 µM) | 0.3 (≈ 0.528 µM) | 1.2 (≈ 2.11 µM) | 10 (≈ 17.6 µM) | CO[C@@H]1[C@@H](OC(=O)c2ccc(C)[nH]2)[C@@H](O)[C@H](Oc2ccc3c(OCCn4cncn4)cc(=O)oc3c2C)OC1(C)C |
